# Patent US9315458B2, “Nitrogen-containing heterocyclic compound” (Takeda Pharmaceutical Company Limited, priority 2014, dated 2016)
# Target: T1, human M1 receptor (hCHRM1) (Homo sapiens, UniProt P11229)
# T1 construct: expressed in transfected cells
# T1 sequence (P11229 1-460): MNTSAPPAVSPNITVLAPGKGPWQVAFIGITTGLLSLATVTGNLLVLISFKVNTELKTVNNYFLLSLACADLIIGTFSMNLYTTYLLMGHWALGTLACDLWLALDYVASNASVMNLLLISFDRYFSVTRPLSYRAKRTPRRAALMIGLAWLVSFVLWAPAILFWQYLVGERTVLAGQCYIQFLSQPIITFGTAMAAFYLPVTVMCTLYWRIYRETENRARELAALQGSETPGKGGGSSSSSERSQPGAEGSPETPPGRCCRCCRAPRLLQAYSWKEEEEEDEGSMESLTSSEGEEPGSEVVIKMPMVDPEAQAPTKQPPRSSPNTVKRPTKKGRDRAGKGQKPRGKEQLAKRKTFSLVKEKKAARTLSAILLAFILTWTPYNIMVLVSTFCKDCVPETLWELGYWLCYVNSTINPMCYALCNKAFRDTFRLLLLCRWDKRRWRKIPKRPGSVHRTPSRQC
# Assay: Measurement of M1 receptor positive allosteric modulator (M1PAM) activity, calcium fluorescence (FLIPRtetra) with acetylcholine at EC20
# Type: cell-based
# Settings: for activity (%) at 10 μM: 10 μM test compound, 100% = acetylcholine 1 μM, 0% = DMSO, acetylcholine at EC20; for EC50: inflection point of concentration-dependent curve, CHO-K1 cells expressing hCHRM1, acetylcholine at EC20 (final 0.6-0.8 nM), read-out: IP value
# Description: The activity of a test compound in the presence of acetylcholine at EC20 concentration (final concentration 0.6-0.8 nM), which affords an action corresponding to about 20% of the maximum activity, was measured as PAM activity. The method is as follows. CHO-K1 cells stably expressing a human M1 receptor (hCHRM1) were plated on a 384-well black clear bottom plate (BD Falcon) at 5,000 cells/well, and cultured in an incubator at 37° C., 5% CO2 for 1 day. The medium in the cell plate was removed, and assay buffer A (Recording medium (DOJINDO LABORATORIES), 0.1% BSA (Wako Pure Chemical Industries, Ltd.), 2.5 μg/mL Fluo-4 AM (DOJINDO LABORATORIES), 0.08% Pluronic F127 (DOJINDO LABORATORIES), 1.25 mM probenecid (DOJINDO LABORATORIES)) containing a calcium indicator was added at 30 μL/well. The cells were left standing in the incubator at 37° C., 5% CO2 for 30 min, and further left standing at room temperature for 30 min. A test compound prepared by diluting with assay buffer B (HBSS (Invitrogen), 20 mM HEPES (Invitrogen), 0.1% BSA) containing 2.4-3.2 nM acetylcholine was added at 10 μL/well, and the fluorescence was measured by FLIPRtetra (Molecular Devices) for 1 min every 1 second. With the definition that the amount of change in the fluorescence on addition of acetylcholine (final concentration 1 μM) is 100% and that on addition of DMSO instead of a test compound is 0%, the activity (%) of the test compound was calculated, and the inflection point in the concentration-dependent curve of the test compound was calculated as IP values.
SMILES,activity (%) at 10 μM,EC50
"Cc1c(Cc2ccc(-n3cccn3)cc2)cc2c(c1C)CN([C@H]1CCCC[C@@H]1O)C2=O (racemic) [Example 29, rac-2-(trans-2-hydroxycyclohexyl)-4,5-dimethyl-6-(4-(1H-pyrazol-1-yl)benzyl)isoindolin-1-one]",102%,9.5 nM
"Cn1cc(-c2ccc(Cc3cc4c(cc3Cl)CN(CC3CCCO3)C4=O)cc2)nn1 (centres unmarked) [Example 60, 5-chloro-6-(4-(1-methyl-1H-1,2,3-triazol-4-yl)benzyl)-2-(tetrahydrofuran-2-ylmethyl)isoindolin-1-one]",94%,72 nM
"O=C1c2cc(Cc3ccc(-n4cccn4)cc3)c(C(F)(F)F)c(Cl)c2CN1[C@H]1CCCC[C@@H]1O (racemic) [Example 10, rac-4-chloro-2-(trans-2-hydroxycyclohexyl)-6-(4-(1H-pyrazol-1-yl)benzyl)-5-(trifluoromethyl)isoindolin-1-one]",106%,66 nM
"COc1ccc(Cc2cc3c(c(F)c2C)CN([C@H]2COCC[C@@H]2O)C3=O)cc1 [Example 150, 4-fluoro-2-[(3S,4S)-4-hydroxytetrahydro-2H-pyran-3-yl]-6-(4-methoxybenzyl)-5-methyl-2,3-dihydro-1H-isoindol-1-one]",89%,14 nM
"CCc1cc2c(cc1Cc1ccc(-n3cccn3)cc1)C(=O)N(CC(C)(C)O)C2 [Example 129, 5-ethyl-2-(2-hydroxy-2-methylpropyl)-6-(4-(1H-pyrazol-1-yl)benzyl)isoindolin-1-one]",100%,53 nM
"CCc1cc2c(cc1Cc1ccc(-n3cccn3)cc1)C(=O)N([C@H]1COCC[C@@H]1O)C2 [Example 128, 5-ethyl-2-[(3S,4S)-4-hydroxytetrahydro-2H-pyran-3-yl]-6-[4-(1H-pyrazol-1-yl)benzyl]-2,3-dihydro-1H-isoindol-1-one]",97%,5 nM
"COc1ccc(Cc2cc3c(c(F)c2C)CN([C@H]2CCCC[C@@H]2O)C3=O)cc1 [Example 154, 4-fluoro-2-((1S,2S)-2-hydroxycyclohexyl)-6-(4-methoxybenzyl)-5-methylisoindolin-1-one]",100%,22 nM
"Cc1cc2c(cc1Cc1ccc(-n3cccn3)cc1)C(=O)N(c1c(F)cccc1C#N)C2 [Example 7, 3-fluoro-2-(5-methyl-1-oxo-6-(4-(1H-pyrazol-1-yl)benzyl)-1,3-dihydro-2H-isoindol-2-yl)benzonitrile]",107%,180 nM
"Cc1c(Cc2ccc(-n3cccn3)cc2)cc2c(c1C)CN([C@H]1COCC[C@@H]1O)C2=O (racemic) [Example 35, rac-2-(trans-4-hydroxytetrahydro-2H-pyran-3-yl)-4,5-dimethyl-6-(4-(1H-pyrazol-1-yl)benzyl)-2,3-dihydro-1H-isoindol-1-one]",103%,3.9 nM
"Cc1c(Cc2ccc(-c3ccn(C)n3)cc2)cc2c(c1C)CN(C[C@@H]1CCCO1)C2=O [Example 109, 4,5-dimethyl-6-(4-(1-methyl-1H-pyrazol-3-yl)benzyl)-2-((2S)-tetrahydrofuran-2-ylmethyl)isoindolin-1-one]",100%,23 nM
"COc1ccc(Cc2cc3c(c(Cl)c2C)CN([C@H]2COCC[C@@H]2O)C3=O)cc1 [Example 24, 1,5-anhydro-2-(4-chloro-6-(4-methoxybenzyl)-5-methyl-1-oxo-1,3-dihydro-2H-isoindol-2-yl)-2,4-dideoxy-L-threo-pentitol]",88%,4.3 nM
"CCc1cc2c(cc1Cc1ccc(-c3cn(C)nn3)cc1)C(=O)N(CC(C)(C)O)C2 [Example 118, 5-ethyl-2-(2-hydroxy-2-methylpropyl)-6-(4-(1-methyl-1H-1,2,3-triazol-4-yl)benzyl)isoindolin-1-one]",106%,25 nM
"COc1cc(Cc2cc3c(c(C)c2C)CN([C@H]2COCC[C@@H]2O)C3=O)ccc1F [Example 23, 1,5-anhydro-2,4-dideoxy-2-(6-(4-fluoro-3-methoxybenzyl)-4,5-dimethyl-1-oxo-1,3-dihydro-2H-isoindol-2-yl)-L-threo-pentitol]",100%,46 nM
"Cc1cc2c(cc1Cc1ccc(-n3cccn3)cc1)C(=O)N(CC1CCCO1)C2 (centres unmarked) [Example 36, 5-methyl-6-(4-(1H-pyrazol-1-yl)benzyl)-2-(tetrahydrofuran-2-ylmethyl)isoindolin-1-one]",107%,83 nM
"CNC(=O)c1ccc(Cc2cc3c(c(C)c2C)CN(CC(C)(C)O)C3=O)cc1F [Example 138, 2-fluoro-4-((2-(2-hydroxy-2-methylpropyl)-6,7-dimethyl-3-oxo-2,3-dihydro-1H-isoindol-5-yl)methyl)-N-methylbenzamide]",106%,25 nM
"CCc1ccc(Cc2cc3c(c(C)c2C)CN([C@H]2CCCC[C@@H]2O)C3=O)cn1 [Example 149, 6-((6-ethylpyridin-3-yl)methyl)-2-((1S,2S)-2-hydroxycyclohexyl)-4,5-dimethylisoindolin-1-one]",99%,16 nM
"Cc1cc2c(cc1Cc1ccc(-n3cccn3)cc1)C(=O)N(CC(C)(C)O)C2 [Example 104, 2-(2-hydroxy-2-methylpropyl)-5-methyl-6-(4-(1H-pyrazol-1-yl)benzyl)isoindolin-1-one]",101%,54 nM
"Cc1cc2c(cc1Cc1ccc(-c3ccn(C)n3)cc1)C(=O)N([C@H]1CCC[C@@H]1O)C2 (racemic) [Example 51, rac-2-(trans-2-hydroxycyclopentyl)-5-methyl-6-(4-(1-methyl-1H-pyrazol-3-yl)benzyl)isoindolin-1-one]",86%,42 nM
"CCOc1ccc(Cc2cc3c(c(C)c2C)CN([C@H]2COCC[C@@H]2O)C3=O)cc1 [Example 142, 6-(4-ethoxybenzyl)-2-[(3S,4S)-4-hydroxytetrahydro-2H-pyran-3-yl]-4,5-dimethyl-2,3-dihydro-1H-isoinol-1-one]",106%,31 nM
"Cc1c(Cc2ccc(-c3cnn(C)c3)nc2)cc2c(c1C)CN([C@H]1CCCC[C@@H]1O)C2=O (racemic) [Example 28, rac-2-(trans-2-hydroxycyclohexyl)-4,5-dimethyl-6-((6-(1-methyl-1H-pyrazol-4-yl)pyridin-3-yl)methyl)isoindolin-1-one]",106%,4.8 nM
"Cc1c(Cc2ccc(-n3cccn3)cc2)cc2c(c1Cl)CN([C@H]1CCC[C@@H]1O)C2=O [Example 131, 4-chloro-2-((1S,2S)-2-hydroxycyclopentyl)-5-methyl-6-(4-(1H-pyrazol-1-yl)benzyl)isoindolin-1-one]",100%,12 nM
"Cc1c(Cc2ccc(-n3cccn3)cc2)cc2c(c1F)CN([C@H]1CCCC[C@@H]1O)C2=O (racemic) [Example 78, rac-4-fluoro-2-(trans-2-hydroxycyclohexyl)-5-methyl-6-(4-(1H-pyrazol-1-yl)benzyl)isoindolin-1-one]",95%,8.8 nM
"Cc1cc2c(cc1Cc1ccc(-n3cccn3)cc1)C(=O)N([C@H]1CCCC[C@@H]1O)C2 (racemic) [Example 32, rac-2-(trans-2-hydroxycyclohexyl)-5-methyl-6-(4-(1H-pyrazol-1-yl)benzyl)isoindolin-1-one]",99%,5.6 nM
"Cc1c(Cc2ccc(-c3ccn(C)n3)cc2)cc2c(c1C)CN([C@H]1CCC[C@@H]1O)C2=O [Example 13, 2-((1S,2S)-2-hydroxycyclopentyl)-4,5-dimethyl-6-(4-(1-methyl-1H-pyrazol-3-yl)benzyl)isoindolin-1-one]",104%,7.9 nM
"Cn1cc(-c2ccc(Cc3ccc4c(c3)C(=O)N([C@H]3CCCC[C@@H]3O)C4)cn2)cn1 (racemic) [Example 1, rac-2-(trans-2-hydroxycyclohexyl)-6-((6-(1-methyl-1H-pyrazol-4-yl)pyridin-3-yl)methyl)isoindolin-1-one]",111%,750 nM
